EP4755891A1, “ARF1 INHIBITOR AND USE THEREOF” (AOBIO PHARMACEUTICAL CO., LTD., priority 2023, dated 2025)
Entries after “also recorded” stand apart in the source; their conditions may differ.

What was measured:
CT26 colon cancer [1] = assay: Inhibition of CT26 colon cancer in BALB/c mice (Example 47, 5 mg/kg); format: in vivo; settings: gavaged daily, two consecutive weeks, FIG. 9 and FIG. 10
Procedure: In this example, the inhibitory effects of Compounds 9, 11-3, 25, 26, 27, and DU102 on colon cancer growth were tested.
Murine CT26 cells were inoculated into the left abdomen of 6-week-old male mice at a dose of 5×10^5 cells per mouse. Approximately 7 days later, the mice were randomly divided into two groups: the control group or the compound treatment group. They were gavaged daily with either the vehicle control (ddH2O or 5% DMSO in corn oil) or 5 mg/kg of Compounds 9, 11-3, 25, 26, or 27 (dissolved in the corresponding vehicle) for two consecutive weeks. Tumor diameters were measured every 2-3 days using a digital caliper (ULINE, Cat^# H-7352), and the tumor volume was calculated using the formula ½ × longitudinal diameter (length) × maximum transverse diameter (width). When the maximum tumor volume reached 2000 mm^3, the mice were euthanized.

CT26 colon cancer [2] = assay: Inhibition of CT26 colon cancer in BALB/c mice (Example 48, 10 mg/kg); format: in vivo; settings: gavaged daily, two consecutive weeks, FIG. 11
Procedure: In this example, the inhibitory effects of Compounds 28, 30, 31, 33, 34, and DU102 synthesized in the above preparation examples on the growth of colon cancer were tested.
Murine CT26 cells were inoculated into the left abdomen of 6-week-old male mice at a dose of 5×10^5 cells per mouse. Approximately 7 days later, the mice were randomly divided into two groups: the control group or the compound treatment group. The mice were gavaged daily with either the vehicle control (ddH2O or 5% DMSO in corn oil) or 10 mg/kg of Compounds 28, 30, 31, 33, 34, and DU102 (dissolved in the corresponding vehicle) for two consecutive weeks. Tumor diameters were measured every 2-3 days using a digital caliper (ULINE, Cat^# H-7352), and the tumor volume was calculated using the formula ½ × longitudinal diameter (length) × maximum transverse diameter (width). When the maximum tumor volume reached 3000 mm^3, the mice were euthanized.

Mouse neuroblastoma N2A = assay: Test for Golgi morphology abnormalities (GM130 immunofluorescence); format: cell-based; settings: N2A cells; FIG. 4
Procedure: GCA, a known Arf1 inhibitor, was used as a positive control.
Mouse neuroblastoma N2A (N2a, ATCC®CCL-131™) was cultured, treated, and subjected to immunofluorescence staining as previously reported (Wang et al., 2021).

NF-κB signaling pathway = assay: Activation of NF-κB signaling pathway (phosphorylated P65, Western blot); format: cell-based, Murine; settings: CT26 cells; FIG. 6
Procedure: In this example, Compounds 3 and 9 synthesized in the above preparation examples were tested for their ability to activate the NF-κB signaling pathway, as indicated by an increase of phosphorylated P65. GCA, a known Arf1 inhibitor, was used as a positive control.
In CT26 cells treated with DMSO, GCA, Compound 3, or Compound 9, the relevant protein levels were evaluated by Western blot analysis as previously described (Wang et al., 2020).

Arf1 = target: T1, Arf1 (Homo sapiens, UniProt P84077); assay: Inhibition test of Arf1 activation (Active Arf1 pull-down and detection kit, Western blot); format: cell-based; settings: lysate of liver cancer Huh-7 cells; GTP-bound Arf1; FIG. 3
T1 construct: endogenous in cells; host or cells: Huh-7 liver cancer cells (lysate)
Procedure: In this example, the inhibitory ability of Compounds 3 and 9 synthesized in the above preparation examples on Arf1 activation was tested. The Pierce Active Arf1 Pull-Down and Detection Kit (Thermo Scientific, Cat#16121) was used with the lysate of liver cancer Huh-7 cells to detect the activated Arf1. It is a complete kit that selectively enriches and detects GTP-bound Arf1 GTPase through specific protein interactions with the GGA3 protein-binding domain.

CCL5 = assay: Upregulation of chemokine CCL5 expression (quantitative RT-PCR); format: cell-based, Murine; settings: CT26 cells; FIG. 5
Procedure: In this example, the upregulation of chemokine CCL5 expression induced by the treatment of Compounds 3 and 9 synthesized in the above preparation examples was tested. Quantitative RT-PCR was used to measure the expression level of chemokine CCL5 in CT26 cells treated with DMSO, Compound 3, or Compound 9.

[3] = test system: Drosophila orthotopic tumors; assay: Inhibition of orthotopic tumor growth in Drosophila; format: in vivo; settings: 5 µM in food, 4 days; Ras^V12-PMML clones; FIG. 7
Procedure: In this example, the inhibitory effects of Compounds 3 and 9 synthesized in the above preparation examples on the growth of Drosophila orthotopic tumors were tested. As previously described, renal stem cell tumor clusters were induced by expressing Ras in Drosophila renal stem cell (Ras^V12-PMML) clones (Singh et al., 2016). The Drosophila carrying Ras^V12-PMML clones were cultured with normal food at room temperature for 4 days to allow tumor growth. They were then switched to food containing the indicated drugs for an additional 4 days, followed by feeding the Drosophila carrying Ras^V12-PMML with normal food containing DMSO or 5 µM Compound 3 or Compound 9. In the indicated groups, the number of esg>GFP + tumor cells per 5×10^3 µm^2 area was quantified to characterize tumor size.

T1 sequence (P84077 whole entry): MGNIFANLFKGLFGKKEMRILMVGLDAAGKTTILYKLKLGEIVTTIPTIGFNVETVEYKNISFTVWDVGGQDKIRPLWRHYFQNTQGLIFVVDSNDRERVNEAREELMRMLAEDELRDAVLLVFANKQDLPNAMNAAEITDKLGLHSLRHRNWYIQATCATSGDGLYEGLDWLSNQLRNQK

Compound: Cc1nc2ccc(Nc3ncnc4scc(C)c34)cc2[nH]1 [Compound 25, 5-Methyl-N-(2-methyl-1H-benzo[d]imidazol-6-yl)thieno[2,3-d]pyrimidin-4-amine]
- inhibition of CT26 colon cancer (CT26 colon cancer [1]): effectively inhibit CT26 colon cancer

Compound: Cn1cnc2cc(Nc3ncnc4sc5c(c34)CCN(C(=O)c3ccc(Cl)s3)C5)ccc21 [Compound 26, (5-Chlorothiophen-2-yl)(4-((1-methyl-1H-benzo[d]imidazol-5-yl)amino)-5,8-dihydropyrido[4',3':4,5]thieno[2,3-d]pyrimidin-7(6H)-yl)methanone]
- inhibition of CT26 colon cancer (CT26 colon cancer [1]): effectively inhibit CT26 colon cancer

Compound: Cc1nc2ccc(Nc3ncnc4sc5c(c34)CCNC5)cc2[nH]1 [Compound 28, N-(2-Methyl-1H-benzo[d]imidazol-6-yl)-5,6,7,8-tetrahydropyrido[4',3':4,5]thieno[2,3-d]pyrimidin-4-amine]
- inhibition of CT26 colon cancer (CT26 colon cancer [2]): effectively inhibit CT26 colon cancer

Compound: CC(=O)N1CCc2c(sc3ncnc(Nc4ccc5nc(C)[nH]c5c4)c23)C1 [Compound 30, 1-(4-((2-Methyl-1H-benzo[d]imidazol-6-yl)amino)-5,8-dihydropyrido[4',3':4,5]thieno[2,3-d]pyrimidin-7(6H)-yl)ethanone]
- inhibition of CT26 colon cancer (CT26 colon cancer [2]): effectively inhibit CT26 colon cancer

Compound: Cc1nc2cc(Nc3ncnc4sc5c(c34)CCCCCC5)ccc2[nH]1 [Compound 31, N-(2-Methyl-1H-benzo[d]imidazol-5-yl)-5,6,7,8,9,10-hexahydrocycloocta[4,5]thieno[2,3-d]pyrimidin-4-amine]
- inhibition of CT26 colon cancer (CT26 colon cancer [2]): effectively inhibit CT26 colon cancer

Compound: Cc1nc2cc(/C=N/Nc3ncnc4sc5c(c34)CCCCCC5)ccc2[nH]1 [Compound 33, (E)-4-(2-((2-Methyl-1H-benzo[d]imidazol-5-yl)methylene)hydrazinyl)-5,6,7,8,9,10-hexahydrocycloocta[4,5]thieno[2,3-d]pyrimidine]
- inhibition of CT26 colon cancer (CT26 colon cancer [2]): effectively inhibit CT26 colon cancer

Compound: Fc1cc(F)c2c(c1)[C@H]1C=CC[C@H]1C(c1cccnc1)N2 (stereo partly shown) [GCA, reference compound]
- Golgi morphology (Golgi apparatus defects, distribution of Golgi marker GM130) (Mouse neuroblastoma N2A): effectively induce morphological changes in the Golgi apparatus
- phosphorylation level of P65 (NF-κB signaling pathway): increase the phosphorylation level of P65

Compound: N-(1H-Indol-5-yl)-methylthieno[2,3-d]pyrimidin-4-amine [Compound 3]
- inhibition of Arf1 activation (Arf1): effectively inhibit the activation of Arf1; also recorded: effective inhibitors
- expression of the chemokine CCL5 (CCL5): effectively promote the expression
- Golgi morphology (Golgi apparatus defects, distribution of Golgi marker GM130) (Mouse neuroblastoma N2A): induce Golgi apparatus defects; also recorded: effectively induce morphological changes in the Golgi apparatus
- orthotopic tumor growth in Drosophila [3]: effectively inhibit orthotopic tumor growth
- phosphorylation level of P65 (NF-κB signaling pathway): increase the phosphorylation level of P65
